Reference: patent US9421179B2, “Acamprosate formulations, methods of using the same, and combinations comprising the same” (Synchroneuron Inc., priority 2011, dated 2016)
“Also recorded” adds a separate entry of the source.

How the values were obtained:
[1] = Gastric retention time of swellable acamprosate tablet in dog model (fed mode induction with alpha-lipoic acid); format: in vivo; conditions: retention of 800 mg swellable tablet; After 125 mg alpha-lipoic acid given 15 minutes before; four beagle dogs
[2] = system: abnormal chewing movements produced in rats by haloperidol; test: Rat model of tardive dyskinesia (haloperidol-induced abnormal chewing movements); format: in vivo; conditions: steadily-maintained blood level; rats exposed several weeks to haloperidol
Description: Acamprosate is tested using a rat model of tardive dyskinesia looking at abnormal chewing movements produced in rats by exposing them for several weeks to haloperidol, a potent first-generation neuroleptic. […]

[3] = system: cultured rat hippocampus neurons; test: Organotypic hippocampal slice model of glutamate neurotoxicity after acamprosate pre-treatment; format: cell-based; conditions: 200 μM calcium acamprosate for 8 hr or 5 days; removed for up to eight hours; challenge NMDA 50 uM or mGluR agonist
Description: The study is designed to test whether pre-treatment with acamprosate can have long-term neuronal protective effects against glutamate neurotoxicity. The study uses an in vitro organotypic hippocampal slice model. The study assesses whether less than 24 hours per day of exposure to a sufficient level of acamprosate can offer 24-hour therapeutic actions in neuropsychiatric disorders. […] This supports, among other things, the therapeutic use of acamprosate in neuropsychiatric disorders because the latter are related to the effect of acamprosate to decrease glutamate effects at NMDA and metabotropic glutamate receptors.
Hippocampal slices derived from 8-day-old Sprague Dawley rats are plated and subsequently exposed to a relatively acute (8 hour) or more chronic (5 day) acamprosate treatment. […] The slices are then placed in normal medium with propidium iodide for 24 hr and assessed for neurotoxicity/neuroprotection as described below. […]
For the final medium change, the plates are moved into normal media containing propidium iodide (PI) added to each well for 24 hours. PI only penetrates cell membranes of damaged or potentially dying cells, binding to DNA to produce a bright, intensified red fluorescence at 630 nm. […] Fluorescence is recorded in arbitrary units, then converted to percent of control, facilitating comparison across multiple cultures and controlling for variation between litters.

[4] = cited from earlier work
[5] = cited from earlier work; remark: listed apart in the source
tardive dyskinesia = test: Clinical cases: acamprosate treatment of tardive dyskinesia; format: in vivo, human
Description: Case 1: A person had long-standing tardive dyskinesia induced by treatment of schizoaffective disorder with a variety of neuroleptics and mood stabilizers. Their TD was characterized by side to side movements of the jaw, grimacing movements, rocking of the trunk, and continual involuntary kicking, leg-crossing, and twisting movements of their legs and feet. At the time they presented for treatment of their TD they were treated for their mental illness with lamotrigine and quetiapine, a second-generation neuroleptic.
After additional weeks free of TD symptoms they discontinued the acamprosate. Their TD symptoms returned, as did feelings of anxiety and agitation that had not been present while they were on the combination of acamprosate and perphenazine.
To test the hypothesis that the efficacy of acamprosate was related to adequate time above a threshold blood level the patient was asked to try taking 1332 mg of acamprosate once a day.
CASE 2: A person had been treated with acamprosate for several years for TD due to exposure to several neuroleptics for schizoaffective disorder. They were currently treated with lamotrigine and quetiapine for their mental illness, and was taking acamprosate 1032 mg+999 mg+1032 mg on a three times daily basis. […] To test the therapeutic threshold hypothesis the patient was asked to try 1032 mg of acamprosate once a day in the morning.

[6] = system: Per2(Brdm1) deletion or ENT1(-/-) mice; test: Transgenic mouse models with movement disorders and hyperglutamatergic states; format: in vivo; conditions: steadily-maintained blood level

Row | Structure (SMILES) | Average gastric retention time [1] [h] | Maximum gastric retention time [1] [h] | Minimum gastric retention time [1] [h] | abnormal chewing movements [2] | effect on post-synaptic effects of glutamate agonists after removal of acamprosate from the culture medium [3] | decrease of bioavailability by food [4] | solubility [5] | solubility in gastric juice ([5]; gastric juice) | relief of TD symptoms (tardive dyskinesia; Case 1, 666 mg three times a day) | relief of TD symptoms (tardive dyskinesia; Case 1, 999 mg three times a day) | anxiety and agitation (tardive dyskinesia; Case 1, 999 mg three times a day, with perphenazine) | relief of TD symptoms (tardive dyskinesia; Case 1, 1332 mg once a day) | side effects (tardive dyskinesia; Case 1, 1332 mg once a day) | relief of involuntary movements of TD (tardive dyskinesia; Case 2, 999 mg three times a day) | relief of involuntary movements of TD (tardive dyskinesia; Case 2, 1032 mg in the morning plus second dose of 1032 mg 8 to 10 hours later) | relief of involuntary movements of TD (tardive dyskinesia; Case 2, 1032 mg once a day in the morning) | relief of involuntary movements of TD (tardive dyskinesia; Case 2, 1032 mg+999 mg+1032 mg three times daily) | anxiety and agitation (tardive dyskinesia; Case 2, when involuntary movements were relieved, with lamotrigine and quetiapine) | abnormal movements [6]
1 | O=C(O)CCCCC1CCSS1 (stereo not drawn) [alpha-lipoic acid] | 2.8 | 5 | 1.5 |  |  |  |  |  |  |  |  |  |  |  |  |  |  |  | 
2 | CC(=O)NCCCS(=O)(=O)O [acamprosate, calcium N-acetylhomotaurinate] |  |  |  | reduce or eliminate the abnormal movements | persistent effect | approximately 30% | high solubility | immediately and completely soluble in gastric juice | partial relief of symptoms; also recorded: did not give their complete relief | complete relief of their TD | relief of anxiety and agitation | free of involuntary movements of TD | significant GI side effects of diarrhea and abdominal cramps | did not give full relief from their involuntary movements | complete relief of symptoms | free of movements in the morning and early afternoon but movements returned in the evening | completely relieved their involuntary movements of TD | less anxiety and agitation | reduce or eliminate the abnormal movements
